Data reported in patent publication US10413593B2 (priority 2014, dated 2019).

Legend:
[1] = Cumulative food intake in DIO mice (Example 20, FIG. 3); conditions: 3 nmol/kg, after 8 days of dosing
Description: For the studies in Examples 18, 19, 20, and 21, diet induced obesity (DIO) mice (strain C57Bl6/NTac; 20 weeks on a high fat diet, about 47 g) were divided into groups of eight mice per group and the initial average body weight, food intake and basal glucose of each group were matched before peptide administration. Each group of mice was subcutaneously injected daily with a dose of Co-agonist Peptide or vehicle control for 7 to 10 days. The peptides tested in this study were Co-agonist Peptides 1, 2, 3, 4, 5, and 6 (SEQ ID NOs: 6, 7, 8, 9, 10, and 11, respectively) at the doses that varied from 3 nmol/kg to 25 nmol/kg. Body weight, food intake and basal glucose were measured periodically during treatment.

[2] = Second study in DIO mice: body weight change percent relative to vehicle (Example 19, FIG. 2); assay type: in vivo, mice (strain C57Bl6/NTac); conditions: 3 nmol/kg daily, eight days
Description: In addition, the peptide of SEQ ID NO: 8 was administered at 15 nmol/kg, while the peptide of SEQ ID NOs: 10 and 11 were administered at 3 nmol/kg. Body weight was measured daily for eight days and body weight change is expressed as percent relative to vehicle (FIG. 2).

[3] = Cumulative body weight change in DIO mice, daily s.c. dosing for nine days (Example 18, FIG. 1); assay type: in vivo, mice (strain C57Bl6/NTac); conditions: 9 nmol/kg s.c. daily, day 9
Description: Mice were administered a vehicle control or a dose of a peptide daily for nine days. […] The peptide of SEQ ID NO: 9 was administered at doses of 9 and 25 nmol/kg. Cumulative body weight change (grams) was measured each day of the study except on day 3. Results are shown in FIG. 1 and are expressed as mean±SEM.

SMILES: CCCCCCCCCCCCCCCC(=O)N[C@@H](CCC(=O)N[C@@H](CCC(=O)NCCCC[C@H](NC(=O)[C@H](CC(=O)O)NC(=O)[C@H](CO)NC(=O)[C@@H](NC(=O)[C@H](Cc1ccccc1)NC(=O)[C@@H](NC(=O)CNC(=O)[C@H](CCC(N)=O)NC(=O)[C@@H](CO)NC(=O)[C@@H](N)Cc1c[nH]cn1)[C@@H](C)O)[C@@H](C)O)C(=O)N[C@@H](CO)C(=O)N[C@@H](CCCCN)C(=O)N[C@@H](Cc1ccc(O)cc1)C(=O)N[C@@H](CC(C)C)C(=O)N[C@@H](CC(=O)O)C(=O)N[C@@H](C)C(=O)N[C@@H](CCCNC(=N)N)C(=O)N[C@@H](C)C(=O)N[C@@H](C)C(=O)N[C@@H](CCC(N)=O)C(=O)N[C@@H](CC(=O)O)C(=O)N[C@@H](Cc1ccccc1)C(=O)N[C@H](C(=O)N[C@@H](CCC(N)=O)C(=O)N[C@@H](Cc1c[nH]c2ccccc12)C(=O)N[C@@H](CC(C)C)C(=O)N[C@@H](CC(C)C)C(=O)N[C@@H](CC(=O)O)C(=O)N[C@H](C(N)=O)[C@@H](C)O)C(C)C)C(=O)O)C(=O)O [SEQ ID NO: 10]
- change in food intake vs vehicle [1]: significant suppression of food intake
- weight loss, percent relative to vehicle [2]: approximately 17%
- body weight loss [3]: approximately 13 grams
